Source: patent US20100140166A1, “PROCESS FOR FERMENTIVE PREPARATION OF ALCOHOLS AND RECOVERY OF PRODUCT” (E.I. DU PONT DE NEMOURS AND COMPANY, priority 2008, published 2010)

Tests used:
[1] = Extraction of ethanol from an aqueous solution by ionic liquid (HPLC); format: physicochemical; conditions: 3 mL aqueous solution about 31 g/L ethanol, 5 vol % ionic liquid, overnight equilibration, control 655
Procedure: (§1) Ethanol and isobutanol concentration in the solution was measured using HPLC as described above following thorough mixing and overnight equilibration of the contents of the vial.

[2] = Extraction of isobutanol from an aqueous solution by ionic liquid (HPLC); format: physicochemical; conditions: 3 mL aqueous solution about 31 g/L isobutanol, 5 vol % ionic liquid, overnight equilibration, control 436
Procedure: as §1

[3] = system: Saccharomyces cerevisiae (W1362 20A); test: Glucose Uptake Index (GUI) of Saccharomyces cerevisiae culture in the presence of ionic liquid; format: cell-based; conditions: 5% (v/v) ionic liquid, YPD medium, 30° C., 16 hours after addition; GUI of control without ionic liquid 79.0 (Ex. 1-5) or 100 (Ex. 6-8)

Row | Structure (SMILES) | mM Ethanol (in solution after equilibration) [1] | mM isobutanol (in solution after equilibration) [2] | GUI of Sample (Glucose Utilization Index in the presence of ionic liquid phase) [3] | mM Ethanol (in solution after equilibration) ([1]; listed as [MeDMEEAP] [HFPS]) | mM isobutanol (in solution after equilibration) ([2]; listed as [MeDMEEAP] [HFPS]) | mM Ethanol (in solution after equilibration) ([1]; listed as [MeDMEEAP] [Tf2N]) | mM isobutanol (in solution after equilibration) ([2]; listed as [MeDMEEAP] [Tf2N])
1 | COCC[N+](C)(C)CCN1C(=O)CCC1C (stereo not shown) [Example 4, 1-(N,N,N-dimethyl(methylethoxy)aminoethyl)-5-methylpyrrolidin-2-one hexafluoropropanesulfonate] | 645 mM | 423 mM | 21.9 |  |  |  | 
2 | CCOCC[N+](C)(C)CCN1C(=O)CCC1C (stereo not shown) [Example 2, 1-(N,N,N-dimethyl(ethylethoxy)aminoethyl)-5-methyl-pyrrolidine-2-one hexafluoropropanesulfonate] |  |  | 34.0 | 656 mM | 422 mM |  | 
3 | CC1CCC(=O)N1CC[N+](C)(C)CCO.O=S(=O)([N-]S(=O)(=O)C(F)(F)F)C(F)(F)F (stereo not shown) [Example 8, 1-(N,N,N-dimethyl(hydroxyethyl)aminoethyl)-5-methyl pyrrolidone-2-one bis(trifluoromethane)sulfonamide] |  | 417 mM | 89.3 |  |  |  | 
4 | CCOCC[N+](C)(C)CCN1C(=O)CCC1C (stereo not shown) [Example 3, 1-(N,N,N-dimethyl(ethylethoxy)aminoethyl)-5-methyl-pyrrolidine-2-one bis(trifluoromethane)sulfonamide] |  |  | 80.4 |  |  | 637 mM | 398 mM
5 | COCC[N+](C)(C)CCN1C(=O)CCC1C.O=S(=O)([N-]S(=O)(=O)C(F)(F)F)C(F)(F)F (stereo not shown) [Example 7, 1-(N,N,N-dimethyl(methylethoxy)aminoethyl)-5-methyl pyrrolidone-2-one bis(trifluoromethane)sulfonamide] | 643 mM | 389 mM | 100 |  |  |  | 
6 | CCC[N+](C)(C)CCN1C(=O)CCC1C.O=S(=O)([N-]S(=O)(=O)C(F)(F)F)C(F)(F)F (stereo not shown) [Example 6, 1-(N,N,N-dimethylpropylaminoethyl)-5-methyl pyrrolidone-2-one bis(trifluoromethane)sulfonamide] |  | 387 mM | 100 |  |  |  | 
